BindingDB's records for doi:10.1021/jm030241s (National Cancer Institute-Frederick, 2003)

Biological target: Thymidine kinase (Human herpesvirus 1)
Experiment: Binding affinity constant against HSV-1 thymidine kinase

Ki: 62.9 µM
SMILES: O=c1[nH]c(=O)n([C@H]2C[C@H](O)[C@]3(CO)C[C@H]23)cc1C=CBr [5-((E)-2-Bromo-vinyl)-1-((1R,3S,4S,6S)-4-hydroxy-5-hydroxymethyl-bicyclo[3.1.0]hex-2-yl)-1H-pyrimidine-2,4-dione]
